Results taken from patent publication US20060205826A1, “Method of using carotenoids in the prevention of cognitive decline and for other neuroprotection functions” (priority 2005, published 2006).

Key:
alloxan diabetic mice [1] = details: diabetic animals; Miranda et al., 2004; cited from earlier work
GSH = GSH content in hippocampus homogenate of diabetic mice; assay type: in vivo; details: lutein 0.2 mg/kg p.o. or insulin 500 mU/g s.c. on days 4-13
Method: Male albino mice were used throughout the study, housed in a environmentally regulated room on a dark-light cycle of 12 hours with free access to food and water. Principles of laboratory animal care (NIH publication no. 85-23, revised 1985) were followed, as well as specific Spanish regulations. Animals were made diabetic with a single subcutaneous injection of 200 mg alloxan/kg body weight (66 mg/ml) in 0.1 M citrate buffer, pH 4.5, at day 0 of the experiment. Control mice were injected with the same volume of vehicle also at day 0 of the experiment.
Mice were identified as diabetic on the basis of blood glucose levels (higher than 16 mM at least 4 days after alloxan treatment). Animals were divided into subgroups as required by the experiment (control, control+lutein, diabetic, diabetic+lutein, diabetic+insulin, diabetic+insulin+lutein). Lutein was administered daily at a dose of 0.2 mg/kg p.o since day 4 after alloxan or citrate buffer injection until the end of the experiment. […] Glycated hemoglobin was determined in blood samples obtained by heart puncture immediately before killing the animals.
The GSH content of eye homogenate was quatitated by the method of Reed et al. (Reed et al., 1980). […] These products are quickly separated by HPLC which allows the quantification of nanomolars levels of GSH.

GPx activity = GPx activity in eye and hippocampus homogenate of diabetic mice; assay type: in vivo
Method: (§1) Male albino mice were used throughout the study, housed in a environmentally regulated room on a dark-light cycle of 12 hours with free access to food and water. Principles of laboratory animal care (NIH publication no. 85-23, revised 1985) were followed, as well as specific Spanish regulations. Animals were made diabetic with a single subcutaneous injection of 200 mg alloxan/kg body weight (66 mg/ml) in 0.1 M citrate buffer, pH 4.5, at day 0 of the experiment. Control mice were injected with the same volume of vehicle also at day 0 of the experiment. Mice were identified as diabetic on the basis of blood glucose levels (higher than 16 mM at least 4 days after alloxan treatment). Animals were divided into subgroups as required by the experiment (control, control+lutein, diabetic, diabetic+lutein, diabetic+insulin, diabetic+insulin+lutein). […] Insulin treated animals were injected daily with 500 mU/g body weight since day 4 until the end of the experiment. Mice were killed by cervical dislocation on day 14, and hippocampus and retina were removed and homogenized in pre-chilled 0.2 M potassium phosphate buffer, pH 7.0. These homogenates were used to assay protein, GPx activity and MDA and GSH concentrations. Samples were kept frozen (−80° C.) until biochemical assays were performed. Blood was taken from the tail vein daily to assay blood glucose levels. Glycated hemoglobin was determined in blood samples obtained by heart puncture immediately before killing the animals. GPx activity was assayed as reported by Lawrence et al. (1978) towards hydrogen peroxide. The disappearance of NADPH was followed spectrophotometrically at 340 nm. The reaction mixture consisted of 240 mU/ml of glutathione disulfide reductase, 1 mM GSH, 0.15 mM NADPH in 0.1 M potassium phosphate buffer, pH 7.0, containing 1 mM EDTA and 1 mM sodium azide; 50 μl sample were added to this mixture and allowed to equilibrate at 37° C. for 3 min. reaction was started by the addition of 1.5 mM hydrogen peroxide to adjust the final volume of the assay mixture to 1 ml.

alloxan diabetic mice [2] = assay: Hyperglycemic status (blood glucose) of alloxan diabetic mice; assay type: in vivo; details: for glycemia: diabetic mice
Method: as §1, with “animals.” for “animals. GPx activity was assayed as reported by Lawrence et al. (1978) towards hydrogen peroxide. The disappearance of NADPH was followed spectrophotometrically at 340 nm. The reaction mixture consisted of 240 mU/ml of glutathione disulfide reductase, 1 mM GSH, 0.15 mM NADPH in 0.1 M potassium phosphate buffer, pH 7.0, containing 1 mM EDTA and 1 mM sodium azide; 50 μl sample were added to this mixture and allowed to equilibrate at 37° C. for 3 min. reaction was started by the addition of 1.5 mM hydrogen peroxide to adjust the final volume of the assay mixture to 1 ml.”

## CC1=C[C@H](O)CC(C)(C)[C@H]1/C=C/C(C)=C/C=C/C(C)=C/C=C/C=C(C)/C=C/C=C(C)/C=C/C1=C(C)C[C@@H](O)CC1(C)C [Lutein]
Alloxan diabetic mice [1]
  b-wave amplitude of the electroretinogram: restored
GSH
  GSH content in hippocampus homogenate: restored
GPx activity; eye homogenate without lens, lutein 100 mg/kg p.o. or insulin 500 mU/g s.c. on days 4-13
  retinal GPx activity: protected
GPx activity; lutein 0.2 mg/kg p.o. or insulin 500 mU/g s.c. on days 4-13
  GPx activity in hippocampus homogenate: restored
Alloxan diabetic mice [2]; alloxan diabetic mice, fourteen days after alloxan injection
  hyperglycemic status: did not alter
Alloxan diabetic mice [2]; lutein 0.2 mg/kg p.o. on days 4-13 (hippocampus section)
  glycemia: no effect
Alloxan diabetic mice [2]; lutein 100 mg/kg p.o. on days 4-13 (retina section)
  glycemia: no effect
